Data reported in DBAASP.
≈ marks a conversion by molar mass, not a printed value. Each block holds one compound with its values, some of them ahead of it.

Columns and labels:
Experiment in all cases: ≥ marks a high value that may be exact or a test limit, other limits are often not marked, values filed in µg/mL are converted to µM
[1] = test system: Proteus mirabilis
[2] = test system: Staphylococcus aureus
[3] = test system: Pseudomonas aeruginosa
[4] = test system: Streptococcus pyogenes
[5] = test system: Candida albicans ATCC 14053
[6] = test system: Pseudomonas aeruginosa ATCC 27853
[7] = test system: Klebsiella pneumoniae ATCC 13883
[8] = test system: Enterococcus faecalis ATCC 29212
[9] = test system: Staphylococcus aureus ATCC 29213
[10] = test system: Escherichia coli ATCC 25922
[11] = test system: Pseudomonas fluorescens NCIMB 9046
[12] = test system: Cronobacter sakazakii DPC 6440
[13] = test system: Staphylococcus aureus NCTC 8325-4
[14] = test system: Staphylococcus aureus SA113
[15] = test system: Klebsiella pneumoniae NCIMB 13218
[16] = test system: Escherichia coli NCIMB 11843
[17] = test system: Staphylococcus aureus RN4220
[18] = test system: Salmonella enterica subsp. enterica serovar Typhimurium LT2
[19] = test system: Cronobacter sakazakii DSM 4485
[20] = test system: Cronobacter muytjensii ATCC 51329
[21] = test system: Staphylococcus aureus RF122
[22] = test system: Staphylococcus aureus Newman
[23] = test system: Cronobacter sakazakii ATCC BAA-894
[24] = test system: Candida albicans F7-39/IDE99
[25] = test system: Escherichia coli B
[26] = test system: Staphylococcus epidermidis
[27] = test system: Micrococcus luteus CCM 144
[28] = test system: Bacillus subtilis 168
[29] = test system: Staphylococcus aureus ATCC 43300
[30] = test system: Staphylococcus aureus 1
[31] = test system: Escherichia coli AS1.349
[32] = test system: Klebsiella pneumoniae subsp. pneumoniae CGMCC 1.176
[33] = test system: Bacillus cereus AS1.126
[34] = test system: Staphylococcus aureus AS1.72
[35] = test system: Pseudomonas aeruginosa CGMCC 1.860
[36] = test system: Lactococcus lactis AS1.1690
[37] = test system: Enterobacter cloacae CGMCC 1.58
[38] = test system: Klebsiella aerogenes CGMCC 1.876
[39] = test system: Enterococcus faecium CGMCC 1.2334
[40] = test system: Enterococcus faecalis CGMCC 1.595
[41] = test system: Salmonella typhimurium
[42] = test system: Proteus vulgaris
[43] = test system: Bacillus subtilis
[44] = test system: Escherichia coli

MIC [1]: 31.8 µM (≈ 64 µg/mL)
MIC [2]: 4.47 µM (≈ 9 µg/mL)
MIC [3]: > 31.8 µM
MIC [4]: 0.124 µM (≈ 0.25 µg/mL)
SMILES: NC(N)=NCCC[C@H](NC(=O)[C@H](CCCN=C(N)N)NC(=O)[C@H](CCCN=C(N)N)NC(=O)[C@H](CCCN=C(N)N)NC(=O)[C@H](CCCN=C(N)N)NC(=O)[C@H](CCCN=C(N)N)NC(=O)[C@H](CCCN=C(N)N)NC(=O)[C@H](CCCN=C(N)N)NC(=O)[C@H](Cc1c[nH]c2ccccc12)NC(=O)[C@H](Cc1c[nH]c2ccccc12)NC(=O)[C@H](Cc1c[nH]c2ccccc12)NC(=O)[C@@H](N)Cc1c[nH]c2ccccc12)C(=O)O [WWWWRRRRRRRR]

MIC [5]: ≥ 133 µM
MIC [6]: 66.4 µM (≈ 177 µg/mL)
MIC [7]: ≥ 33 µM
MIC [8]: 133 µM (≈ 353 µg/mL)
MIC [9]: 133 µM (≈ 353 µg/mL)
MIC [10]: 8.36 µM (≈ 22.3 µg/mL)
SMILES: CC[C@H](C)[C@H](NC(=O)[C@H](CCCCN)NC(=O)[C@H](CO)NC(=O)[C@H](C)NC(=O)[C@H](Cc1c[nH]c2ccccc12)NC(=O)CN)C(=O)NCC(=O)N[C@@H](CCC(N)=O)C(=O)N[C@H](C(=O)N[C@@H](CC(C)C)C(=O)NCC(=O)N[C@@H](CCCCN)C(=O)N[C@H](C(=O)N[C@@H](C)C(=O)N[C@@H](CCCCN)C(=O)N[C@H](C(=O)NCC(=O)N[C@@H](CC(C)C)C(=O)N[C@@H](CCCCN)C(=O)N[C@@H](CCC(=O)O)C(=O)N[C@@H](CC(C)C)C(=O)N[C@H](C(=O)N[C@@H](CCC(N)=O)C(=O)N1CCC[C@H]1C(=O)N[C@@H](CCCCN)C(N)=O)[C@@H](C)CC)C(C)C)[C@@H](C)CC)[C@@H](C)O [GWASKIGQTLGKIAKVGLKELIQPK]

MIC [11]: ≥ 1250 µM
MIC [12]: ≥ 625 µM
MIC [13]: ≥ 1250 µM
MIC [14]: ≥ 625 µM
MIC [15]: ≥ 1250 µM
MIC [16]: ≥ 1250 µM
MIC [17]: ≥ 1250 µM
MIC [18]: ≥ 2500 µM
MIC [19]: ≥ 625 µM
MIC [20]: ≥ 2500 µM
MIC [21]: ≥ 1250 µM
MIC [22]: ≥ 1250 µM
MIC [23]: ≥ 625 µM
SMILES: CC[C@H](C)[C@H](N)C(=O)N[C@@H](CCCCN)C(=O)N[C@@H](Cc1cnc[nH]1)C(=O)N[C@@H](CCC(N)=O)C(=O)NCC(=O)N[C@@H](CC(C)C)C(=O)N1CCC[C@H]1C(=O)N[C@@H](CCC(N)=O)C(=O)N[C@@H](CCC(=O)O)C(=O)N[C@@H](CC(=O)O)C(=O)O [IKHQGLPQED]

MIC [24]: 11 µM (≈ 20.1 µg/mL)
MIC [25]: 3.4 µM (≈ 6.21 µg/mL)
MIC [26]: 2 µM (≈ 3.65 µg/mL)
MIC [27]: 3 µM (≈ 5.48 µg/mL)
MIC [2]: 5 µM (≈ 9.13 µg/mL)
MIC [6]: 5.3 µM (≈ 9.67 µg/mL)
MIC [28]: 7 µM (≈ 12.8 µg/mL)
MIC [29]: 5.3 µM (≈ 9.67 µg/mL)
MIC [3]: 8.8 µM (≈ 16.1 µg/mL)
MIC [30]: 2 µM (≈ 3.65 µg/mL)
SMILES: CC[C@H](C)[C@H](NC(=O)CN)C(=O)N[C@@H](CC(C)C)C(=O)N[C@@H](CO)C(=O)N[C@@H](CO)C(=O)N[C@@H](CC(C)C)C(=O)N[C@@H](Cc1c[nH]c2ccccc12)C(=O)N[C@@H](CCCCN)C(=O)N[C@@H](CCCCN)C(=O)N[C@@H](CC(C)C)C(=O)N[C@@H](CCCCN)C(=O)N[C@@H](CCCCN)C(=O)N[C@H](C(=O)N[C@H](C(=O)N[C@@H](C)C(=O)N[C@@H](CCCCN)C(N)=O)[C@@H](C)CC)[C@@H](C)CC [GILSSLWKKLKKIIAK]

MIC [11]: ≥ 1250 µM
MIC [12]: ≥ 1250 µM
MIC [13]: ≥ 625 µM
MIC [14]: ≥ 1250 µM
MIC [15]: ≥ 2500 µM
MIC [6]: 32 µM (≈ 28.4 µg/mL)
MIC [16]: ≥ 2500 µM
MIC [17]: ≥ 1250 µM
MIC [18]: ≥ 2500 µM
MIC [19]: ≥ 625 µM
MIC [20]: ≥ 1250 µM
MIC [21]: ≥ 1250 µM
MIC [22]: ≥ 1250 µM
MIC [23]: ≥ 1250 µM
SMILES: CC(C)C[C@H](NC(=O)[C@@H](N)C(C)C)C(=O)N[C@@H](CC(N)=O)C(=O)N[C@@H](CCC(=O)O)C(=O)N[C@@H](CC(N)=O)C(=O)N[C@@H](C)C(=O)N[C@@H](C)C(=O)N[C@@H](CCCN=C(N)N)C(=O)O [VLNENAAR]

MIC [31]: 25 µM (≈ 29.1 µg/mL)
MIC [32]: ≥ 100 µM
MIC [33]: 1.56 µM (≈ 1.81 µg/mL)
MIC [34]: ≥ 50 µM
MIC [35]: 12.5 µM (≈ 14.5 µg/mL)
MIC [36]: 12.5 µM (≈ 14.5 µg/mL)
MIC [37]: ≥ 100 µM
MIC [38]: ≥ 100 µM
MIC [39]: 25 µM (≈ 29.1 µg/mL)
MIC [40]: 25 µM (≈ 29.1 µg/mL)
SMILES: NC(N)=NCCC[C@H](NC(=O)[C@H](CCCN=C(N)N)NC(=O)[C@H](Cc1c[nH]c2ccccc12)NC(=O)[C@H](Cc1ccccc1)NC(=O)[C@H](CCCN=C(N)N)NC(=O)[C@H](CCCN=C(N)N)NC(=O)[C@@H](N)Cc1c[nH]c2ccccc12)C(=O)O [WRRFWRR]

MIC [41]: 0.5 µM (≈ 0.912 µg/mL)
MIC [26]: ≥ 64 µM
MIC [3]: 64 µM (≈ 117 µg/mL)
MIC [42]: ≥ 64 µM
MIC [43]: ≥ 64 µM
MIC [4]: ≥ 64 µM
MIC [44]: 16 µM (≈ 29.2 µg/mL)
SMILES: CC[C@H](C)[C@H](NC(=O)[C@H](Cc1ccc(O)cc1)NC(=O)[C@@H](NC(=O)[C@@H]1CCCN1C(=O)[C@@H](N)CCCN=C(N)N)C(C)C)C(=O)N1CCC[C@H]1C(=O)N[C@@H](CCC(N)=O)C(=O)N1CCC[C@H]1C(=O)N[C@@H](CCCN=C(N)N)C(=O)N1CCC[C@H]1C(=O)N1CCC[C@H]1C(=O)N[C@@H](Cc1cnc[nH]1)C(=O)N1CCC[C@H]1C(=O)N[C@@H](CCCN=C(N)N)C(=O)N[C@@H](CC(C)C)C(=O)O [RPVYIPQPRPPHPRL]

MIC [41]: ≥ 64 µM
MIC [26]: ≥ 64 µM
MIC [3]: 64 µM (≈ 55.8 µg/mL)
MIC [42]: ≥ 64 µM
MIC [43]: ≥ 64 µM
MIC [4]: ≥ 64 µM
MIC [44]: 64 µM (≈ 55.8 µg/mL)
SMILES: CC(C)C[C@H](NC(=O)[C@H](CCCN=C(N)N)NC(=O)[C@@H]1CCCN1C(=O)[C@H](Cc1cnc[nH]1)NC(=O)[C@@H]1CCCN1C(=O)[C@@H]1CCCN1C(=O)[C@@H](N)CCCN=C(N)N)C(=O)O [RPPHPRL]
